Experimental data: patent publication US6780622B2, “Diterpene cyclase and methods of use” (Florida Atlantic University, priority 2002, dated 2004)
Non-standard residues stand in square brackets, D forms with d. Residues, ends and D or L forms follow the SMILES beside them. *: point of attachment. Sta = CC(C)C[C@H](N)[C@@H](O)CC(=O)O; Isovaleryl = CC(C)CC(=O)*

assay: Cyclization of 3H-GGPP by purified elisabethatriene cyclase-containing chromatography fractions; format: biochemical, Pseudopterogorgia elisabethae; conditions: judged by the formation of pseudopterosins
Protocol: An example of a method for cyclizing GGPP to elisabethatriene includes the steps of providing purified elisabethatriene cyclase and contacting the GGPP substrate with the purified elisabethatriene cyclase under reaction conditions that result in the production of elisabethatriene. Any suitable reaction conditions that result in the production of elisabethatriene may be used. For example, ^3H-GGPP (1 μCi) is incubated with a suitable amount of purified elisabethatriene cyclase at 27° C. for 1-4 hours.
To purify enzymatically active elisabethatriene cyclase, CFE samples were subjected to DEAE ion-exchange chromatography, phenyl sepharose chromatography, hydroxyapatite chromatography, and UNO™ [2-Propen-1-aminium, N,N,-dimethyl-N-2-propenyl-, chloride, polymer with 1,4-bis(1-oxo-2-propenyl)piperazine and 2-methyl-2-propenamide] ion exchange chromatography (Bio-Rad Laboratories, Hercules, Calif.). Active fractions were obtained in all cases. Fractions resulting from these purification techniques were concentrated by ultracentrifugation, and then 0.5-100 μg (brought up to a total volume of 500 μl) was assayed for enzymatic activity by incubation with 1 μCi [1]^3H-GGPP for 1 hour in 20 mM Tris buffer (pH 7.7, 3 mM EDTA, 5 mM β-mercaptoethanol, 5 mM MgCl2). Samples were quenched, extracted with 500 μl hexanes and partially purified by passing through a small silica gel pasteur pipette column. Elisabethatriene was then added as “cold carrier” and incubations were purified by high-performance liquid chromatography (HPLC). […] Radioactivity in HPLC fractions was quantified by scintillation counting.
Using elisabethatriene cyclase purified by column chromatography as described in Example 1, GGPP was cyclized to elisabethatriene. To carry out the reaction, incubations were performed by incubating ^3H-GGPP(1 μCi) with purified elisabethatriene cyclase-containing fractions from chromatography columns at 27° C. for 1-4 hours.

Effect of adding protease inhibitors on enzymatic activity of the fractions, did not increase the enzymatic activity:
CC(C)CC(=O)N[C@H](C(=O)N[C@H](C(=O)N[C@@H](CC(C)C)[C@@H](O)CC(=O)N[C@@H](C)C(=O)N[C@@H](CC(C)C)[C@@H](O)CC(=O)O)C(C)C)C(C)C [pepstatin] (Isovaleryl-VV[Sta]A[Sta]-OH), CC(=O)N[C@@H](CC(C)C)C(=O)N[C@@H](CC(C)C)C(=O)N[C@H](C=O)CCCNC(=N)N [leupeptin], CC(C)C[C@H](NC(=O)[C@@H](NC(=O)N[C@@H](Cc1ccccc1)C(=O)O)[C@@H]1CCN=C(N)N1)C(=O)N[C@H](C=O)Cc1ccccc1 [chymostatin]
